Article PMC9127750, “Structure-based design of CDC42 effector interaction inhibitors for the treatment of cancer” (Cell reports, 2022)
Values joined by “and” are separate entries in the source; they are usually repeats but may differ in a detail not shown here. Equal entries are not always repeated.

System: WM3248 melanoma cells, 486 antibodies
Assay: Reverse phase protein arrays (RPPA)
Format: cell-based, Human
Excerpt: Pellets were snap frozen in liquid nitrogen and shipped to MD Anderson Cancer Center core RPPA facility for RPPA analysis (Table S5). Three biological replicates for each sample were generated.
Nomenclatures on the RPPA heatmaps: name_of_antibody.species_of_antibody.status_of_antibody. V - antibody validated; C - validation of antibody in progress; Q - antibody nonspecific; E – under evaluation; antibodies raised in M - mouse, G - goat, R - rabbit, or T - rat.

[1] = level 10 normalized to 0, mean of 3

CN(C)c1cccc(Nc2cc(-c3ccccc3)nc(C3CCNCC3)n2)c1 [ARN22089, N1,N1-dimethyl-N3-(6-phenyl-2-(piperidin-4-yl)pyrimidin-4-yl)benzene-1,3-diamine]
INPP4b.R.C Norm_5 (level 5 vs 0, replicates): 0.976 and 1.019 | IR.b.R.C Norm_5 (level 5 vs 0, replicates): 1.056 and 1.010 | IRF.1.R.V Norm_5 (level 5 vs 0, replicates): 0.974 and 0.981 and 1.030 | IRF.3.R.V Norm_5 (level 5 vs 0, replicates): 0.924 and 0.890 and 0.996 | IRS1.R.V Norm_5 (level 5 vs 0, replicates): 1.029 and 1.046 and 0.995 | IRS2.R.C Norm_5 (level 5 vs 0, replicates): 1.195 and 0.736 and 1.046 | JAB1.M.C Norm_5 (level 5 vs 0, replicates): 0.954 and 0.981 and 0.972 | JNK2.R.V Norm_5 (level 5 vs 0, replicates): 0.643 and 1.507 | JNK_pT183_Y185.R.C Norm_5 (level 5 vs 0, replicates): 1.060 and 0.929 and 0.988 | Jagged1.R.V Norm_5 (level 5 vs 0, replicates): 1.010 and 1.054 and 0.889 | Jak2.R.V Norm_5 (level 5 vs 0, replicates): 0.979 and 0.991 | KAP1.R.V Norm_5 (level 5 vs 0, replicates): 1.116 and 1.063 and 1.099 | KEAP1.R.V Norm_5 (level 5 vs 0, replicates): 1.026 and 0.913 and 0.925 | LAD1.R.V Norm_5 (level 5 vs 0, replicates): 0.952 and 0.910 and 1.029 | LC3A.B.R.C Norm_5 (level 5 vs 0, replicates): 1.119 and 0.843 | LCN2.R.V Norm_5 (level 5 vs 0, replicates): 1.996 and 0.913 and 0.985 | LDHA.R.C Norm_5 (level 5 vs 0, replicates): 1.253 and 1.735 and 0.318 | LRP6_pS1490.R.V Norm_5 (level 5 vs 0, replicates): 1.015 and 1.011 and 1.114 | Lasu1.R.V Norm_5 (level 5 vs 0, replicates): 0.982 and 1.009 and 0.926 | Lck.R.V Norm_5 (level 5 vs 0, replicates): 1.005 and 1.060 and 0.966 | Lyn.R.V Norm_5 (level 5 vs 0, replicates): 0.801 and 0.941 and 0.791 | MACC1.R.V Norm_5 (level 5 vs 0, replicates): 0.899 and 0.883 and 1.061 | MAPK_pT202_Y204.R.C Norm_5 (level 5 vs 0, replicates): 1.017 and 0.736 and 0.856 | MCT4.R.V Norm_5 (level 5 vs 0, replicates): 1.005 and 0.979 and 1.159 | MDM2_pS166.R.V Norm_5 (level 5 vs 0, replicates): 1.021 and 1.261 and 0.787 | MEK1.R.V Norm_5 (level 5 vs 0, replicates): 1.082 and 0.785 and 1.201 | MEK1_pS217_S221.R.V Norm_5 (level 5 vs 0, replicates): 0.926 | MEK2.R.V Norm_5 (level 5 vs 0, replicates): 1.048 and 1.127 and 0.942 | MERIT40.R.C Norm_5 (level 5 vs 0, replicates): 0.988 and 1.019 and 0.961 | MERIT40_pS29.R.V Norm_5 (level 5 vs 0, replicates): 1.133 and 1.001 | METTL3.R.V Norm_5 (level 5 vs 0, replicates): 0.968 and 1.099 and 0.891 | MIF.R.C Norm_5 (level 5 vs 0, replicates): 0.931 and 0.965 and 0.948 | MIG6.R.V Norm_5 (level 5 vs 0, replicates): 0.932 and 0.886 and 1.000 | MITF.R.V Norm_5 (level 5 vs 0, replicates): 0.975 and 1.014 | MLH1.M.V Norm_5 (level 5 vs 0, replicates): 0.900 and 0.937 and 0.942 | MLKL.R.V Norm_5 (level 5 vs 0, replicates): 0.966 and 0.982 and 0.886 | MMP2.R.V Norm_5 (level 5 vs 0, replicates): 0.925 and 0.948 and 0.967 | MMP14.R.V Norm_5 (level 5 vs 0, replicates): 1.097 and 1.257 | MR1.M.C Norm_5 (level 5 vs 0, replicates): 0.897 and 0.992 | MRAP.R.C Norm_5 (level 5 vs 0, replicates): 1.109 and 1.057 and 0.987 | MSH2.R.C Norm_5 (level 5 vs 0, replicates): 0.939 and 1.022 and 0.901 | MSH6.R.C Norm_5 (level 5 vs 0, replicates): 1.190 and 0.909 | MSI2.R.C Norm_5 (level 5 vs 0, replicates): 1.108 and 1.110 and 1.024 | MTCO1.M.V Norm_5 (level 5 vs 0, replicates): 0.944 and 0.964 and 1.334 | MTSS1.M.C Norm_5 (level 5 vs 0, replicates): 0.924 and 0.926 and 1.000 | Mcl.1.R.V Norm_5 (level 5 vs 0, replicates): 0.943 and 0.925 and 1.013 | MelanA.R.C Norm_5 (level 5 vs 0, replicates): 0.973 and 1.097 | Melanoma.gp100.R.C Norm_5 (level 5 vs 0, replicates): 1.016 | Merlin.R.C Norm_5 (level 5 vs 0, replicates): 1.257 and 0.725 | Midkine.R.V Norm_5 (level 5 vs 0, replicates): 0.866 and 0.942 and 0.987 | Mitofusin.1.R.V Norm_5 (level 5 vs 0, replicates): 1.058 and 0.973 | Mitofusin.2.R.V Norm_5 (level 5 vs 0, replicates): 0.945 | Mnk1.R.V Norm_5 (level 5 vs 0, replicates): 1.014 and 0.983 | mTOR.R.V Norm_5 (level 5 vs 0, replicates): 1.006 and 1.101 and 0.990 | mTOR_pS2448.R.C Norm_5 (level 5 vs 0, replicates): 1.104 and 1.133 and 1.002 | TSC1.R.C Norm_10 Average [1]: 0.899 | TTF1.R.V Norm_10 Average [1]: 1.078 | TUFM.R.V Norm_10 Average [1]: 1.221 | Tuberin.R.V Norm_10 Average [1]: 0.835 | Tuberin_pT1462.R.V Norm_10 Average [1]: 1.064 | Twist.M.C Norm_10 Average [1]: 1.019 | Tyro3.R.V Norm_10 Average [1]: 1.386 | U.Histone.H2B.R.C Norm_10 Average [1]: 0.890 | UBAC1.R.V Norm_10 Average [1]: 1.014 | UBQLN4.M.C Norm_10 Average [1]: 0.961 | UGT1A.M.V Norm_10 Average [1]: 1.050 | UQCRC2.M.C Norm_10 Average [1]: 1.112 | UVRAG.R.C Norm_10 Average [1]: 0.935 | VASP.R.V Norm_10 Average [1]: 0.873 | VAV1.R.C Norm_10 Average [1]: 0.923 | VEGFR.2.R.V Norm_10 Average [1]: 0.957 | VEGFR.2_pY1175.R.C Norm_10 Average [1]: 0.964 | VHL.EPPK1.M.C Norm_10 Average [1]: 1.030 | VHL.R.C Norm_10 Average [1]: 0.986 | Vinculin.M.V Norm_10 Average [1]: 0.988 | WIPI1.R.C Norm_10 Average [1]: 1.318 | WIPI2.R.C Norm_10 Average [1]: 0.944 | WTAP.R.V Norm_10 Average [1]: 1.224 | Wee1.R.C Norm_10 Average [1]: 0.915 | Wee1_pS642.R.C Norm_10 Average [1]: 0.900 | XBP.1.G.C Norm_10 Average [1]: 1.193
